Measured values as given in ChEMBL document CHEMBL4177526, “Discovery and structure activity relationship of the first potent cryptosporidium FIKK kinase inhibitor” (Bioorg Med Chem, 2017).

How the values were obtained:
[1] = molecular target: Ephrin type-B receptor 4 (Homo sapiens) (UniProt P54760); experiment: Inhibition of human EPHB4 (561 to 987 residues) assessed as residual activity at 500 nM in presence of 33P-ATP by filter binding assay relative to control
[2] = molecular target: Tyrosine-protein kinase SYK (Homo sapiens) (UniProt P43405); experiment: Inhibition of human SYK (1 to 635 residues) assessed as residual activity at 500 nM in presence of 33P-ATP by filter binding assay relative to control
[3] = molecular target: Mitogen-activated protein kinase kinase kinase 9 (Homo sapiens) (UniProt P80192); experiment: Inhibition of human MLK1 (132 to 413 residues) assessed as residual activity at 500 nM in presence of 33P-ATP by filter binding assay relative to control
[4] = molecular target: Serine/threonine-protein kinase 26 (Homo sapiens) (UniProt Q9P289); experiment: Inhibition of human MST4 (1 to 416 residues) assessed as residual activity at 500 nM in presence of 33P-ATP by filter binding assay relative to control
[5] = molecular target: Mitogen-activated protein kinase 14 (Homo sapiens) (UniProt Q16539); experiment: Inhibition of human p38alpha (1 to 360 residues) at 500 nM in presence of 33P-ATP by filter binding assay relative to control
Mitogen-activated protein kinase 14 (Homo sapiens), sequence (Q16539 whole entry, the tested form may be a part): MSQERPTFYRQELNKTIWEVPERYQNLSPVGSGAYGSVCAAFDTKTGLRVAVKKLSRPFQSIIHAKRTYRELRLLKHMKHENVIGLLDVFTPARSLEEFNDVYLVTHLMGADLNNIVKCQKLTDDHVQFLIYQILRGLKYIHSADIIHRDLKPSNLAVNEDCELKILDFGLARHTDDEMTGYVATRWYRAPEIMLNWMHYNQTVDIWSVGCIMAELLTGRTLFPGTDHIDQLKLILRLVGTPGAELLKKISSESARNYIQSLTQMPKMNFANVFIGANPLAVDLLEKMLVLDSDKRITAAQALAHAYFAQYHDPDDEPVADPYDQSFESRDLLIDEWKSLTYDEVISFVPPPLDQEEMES

[6] = molecular target: Vascular endothelial growth factor receptor 2 (Homo sapiens) (UniProt P35968); experiment: Inhibition of human VEGFR2 (unknown origin) at 500 nM relative to control
Vascular endothelial growth factor receptor 2 (Homo sapiens), sequence (P35968 whole entry, looked up, the tested form may be a part): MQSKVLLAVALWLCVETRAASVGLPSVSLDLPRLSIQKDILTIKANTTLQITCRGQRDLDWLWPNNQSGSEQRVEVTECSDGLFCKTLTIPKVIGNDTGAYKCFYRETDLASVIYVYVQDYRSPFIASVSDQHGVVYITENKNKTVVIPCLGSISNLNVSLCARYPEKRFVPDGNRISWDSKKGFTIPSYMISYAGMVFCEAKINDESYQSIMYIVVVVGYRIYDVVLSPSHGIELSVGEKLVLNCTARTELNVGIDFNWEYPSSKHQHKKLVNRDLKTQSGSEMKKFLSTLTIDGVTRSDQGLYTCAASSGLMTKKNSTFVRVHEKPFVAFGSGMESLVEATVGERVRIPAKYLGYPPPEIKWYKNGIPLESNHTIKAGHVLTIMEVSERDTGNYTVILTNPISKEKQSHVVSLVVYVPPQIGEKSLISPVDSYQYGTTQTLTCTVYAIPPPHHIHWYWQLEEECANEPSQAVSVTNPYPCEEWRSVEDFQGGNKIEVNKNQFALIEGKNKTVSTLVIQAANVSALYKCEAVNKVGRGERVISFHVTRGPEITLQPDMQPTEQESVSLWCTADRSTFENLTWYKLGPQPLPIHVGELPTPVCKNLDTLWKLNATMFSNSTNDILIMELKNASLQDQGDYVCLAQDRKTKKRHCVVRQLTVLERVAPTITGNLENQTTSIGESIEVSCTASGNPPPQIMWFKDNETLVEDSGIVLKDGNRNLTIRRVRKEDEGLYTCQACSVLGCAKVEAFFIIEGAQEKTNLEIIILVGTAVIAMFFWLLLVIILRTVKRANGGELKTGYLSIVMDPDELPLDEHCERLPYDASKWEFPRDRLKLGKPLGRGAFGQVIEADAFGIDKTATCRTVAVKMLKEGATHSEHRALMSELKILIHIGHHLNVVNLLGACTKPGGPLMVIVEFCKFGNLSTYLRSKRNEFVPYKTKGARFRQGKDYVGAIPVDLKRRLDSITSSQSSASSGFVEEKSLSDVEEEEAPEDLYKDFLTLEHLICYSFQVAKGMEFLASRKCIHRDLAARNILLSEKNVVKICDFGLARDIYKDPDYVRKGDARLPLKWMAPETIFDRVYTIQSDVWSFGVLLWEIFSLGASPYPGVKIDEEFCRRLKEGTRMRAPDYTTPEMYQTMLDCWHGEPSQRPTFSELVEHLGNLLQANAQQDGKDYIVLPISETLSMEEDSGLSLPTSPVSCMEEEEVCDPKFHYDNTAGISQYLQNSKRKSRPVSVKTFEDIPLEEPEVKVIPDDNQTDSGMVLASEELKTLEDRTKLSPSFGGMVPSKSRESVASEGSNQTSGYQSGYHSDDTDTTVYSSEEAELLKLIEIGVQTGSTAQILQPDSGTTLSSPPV

[7] = molecular target: Receptor tyrosine-protein kinase erbB-4 (Homo sapiens) (UniProt Q15303); experiment: Inhibition of human HER4 (706 to 991 residues) assessed as residual activity at 500 nM in presence of 33P-ATP by filter binding assay relative to control
[8] = molecular target: Tyrosine-protein kinase ABL1 (Homo sapiens) (UniProt P00519); experiment: Inhibition of human ABL (118 to 535 residues) assessed as residual activity at 500 nM in presence of 33P-ATP by filter binding assay relative to control
[9] = molecular target: Serine/threonine-protein kinase SIK3 (Homo sapiens) (UniProt Q9Y2K2); experiment: Inhibition of human SIK3 (2 to 1369 residues) assessed as residual activity at 500 nM in presence of 33P-ATP by filter binding assay relative to control
[10] = molecular target: Fibroblast growth factor receptor 1 (Homo sapiens) (UniProt P11362); experiment: Inhibition of human FGFR1 (400 to 820 residues) assessed as residual activity at 500 nM in presence of 33P-ATP by filter binding assay relative to control
[11] = system: TGF-beta receptor type-1 (Homo sapiens), P36897 [T204D]; experiment: Inhibition of human TGFbetaR1 T204D mutant (200 to 501 residues) at 500 nM in presence of 33P-ATP by filter binding assay relative to control
TGF-beta receptor type-1 (Homo sapiens), P36897 [T204D], sequence (P36897 whole entry T204D, the tested form may be a part): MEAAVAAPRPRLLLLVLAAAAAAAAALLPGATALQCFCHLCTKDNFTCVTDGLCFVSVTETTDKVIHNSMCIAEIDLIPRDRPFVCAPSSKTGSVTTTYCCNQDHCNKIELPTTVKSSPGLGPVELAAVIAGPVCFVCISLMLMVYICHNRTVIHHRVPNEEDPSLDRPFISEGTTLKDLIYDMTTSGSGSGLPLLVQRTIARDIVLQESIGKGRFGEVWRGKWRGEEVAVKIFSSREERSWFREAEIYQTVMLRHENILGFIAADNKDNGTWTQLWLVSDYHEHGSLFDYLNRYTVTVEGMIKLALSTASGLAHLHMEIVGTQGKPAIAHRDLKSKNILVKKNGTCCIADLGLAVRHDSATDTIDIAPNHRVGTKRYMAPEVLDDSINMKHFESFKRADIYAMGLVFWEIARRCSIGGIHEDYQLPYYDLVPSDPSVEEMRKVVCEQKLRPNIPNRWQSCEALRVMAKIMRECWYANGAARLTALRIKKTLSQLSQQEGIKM

[12] = Ratio of EC50 for antiparasitic activity against Cryptosporidium parvum Iowa oocysts infected in human HCT8 cells to IC50 for recombinant Cryptosporidium parvum FIKK; format: functional, cell-based
[13] = molecular target: Ribosomal protein S6 kinase alpha-5 (Homo sapiens) (UniProt O75582); experiment: Inhibition of human MSK1 (2 to 802 residues) assessed as residual activity at 500 nM in presence of 33P-ATP by filter binding assay relative to control
Ribosomal protein S6 kinase alpha-5 (Homo sapiens), sequence (O75582 whole entry, looked up, the tested form may be a part): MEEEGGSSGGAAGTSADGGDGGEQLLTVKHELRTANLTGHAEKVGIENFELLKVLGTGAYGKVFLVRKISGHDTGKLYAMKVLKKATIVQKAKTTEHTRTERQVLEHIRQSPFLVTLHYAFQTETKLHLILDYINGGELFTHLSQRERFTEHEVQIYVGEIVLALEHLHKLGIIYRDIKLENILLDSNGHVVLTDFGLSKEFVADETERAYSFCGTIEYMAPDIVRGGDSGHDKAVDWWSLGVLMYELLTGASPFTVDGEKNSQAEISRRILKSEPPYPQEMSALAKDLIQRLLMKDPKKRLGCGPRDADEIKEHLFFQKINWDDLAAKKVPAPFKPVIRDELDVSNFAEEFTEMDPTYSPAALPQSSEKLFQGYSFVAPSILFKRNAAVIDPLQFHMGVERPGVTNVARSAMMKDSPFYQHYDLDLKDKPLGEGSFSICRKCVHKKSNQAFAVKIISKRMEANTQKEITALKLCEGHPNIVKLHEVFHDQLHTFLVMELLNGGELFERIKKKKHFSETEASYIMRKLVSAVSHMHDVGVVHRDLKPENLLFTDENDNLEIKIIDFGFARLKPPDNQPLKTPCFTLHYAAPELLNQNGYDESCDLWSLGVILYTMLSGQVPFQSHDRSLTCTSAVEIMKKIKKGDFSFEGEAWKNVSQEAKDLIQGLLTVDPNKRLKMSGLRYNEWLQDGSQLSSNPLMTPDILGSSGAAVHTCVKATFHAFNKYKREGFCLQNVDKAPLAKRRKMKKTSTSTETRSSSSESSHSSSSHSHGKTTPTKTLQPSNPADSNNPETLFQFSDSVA

[14] = molecular target: Mitogen-activated protein kinase 8 (Homo sapiens) (UniProt P45983); experiment: Inhibition of human JNK1 (1 to 384 residues) assessed as residual activity at 500 nM in presence of 33P-ATP by filter binding assay relative to control
[15] = molecular target: Serine/threonine-protein kinase 24 (Homo sapiens) (UniProt Q9Y6E0); experiment: Inhibition of human MST3 (1 to 431 residues) assessed as residual activity at 500 nM in presence of 33P-ATP by filter binding assay relative to control
Serine/threonine-protein kinase 24 (Homo sapiens), sequence (Q9Y6E0 whole entry, looked up, the tested form may be a part): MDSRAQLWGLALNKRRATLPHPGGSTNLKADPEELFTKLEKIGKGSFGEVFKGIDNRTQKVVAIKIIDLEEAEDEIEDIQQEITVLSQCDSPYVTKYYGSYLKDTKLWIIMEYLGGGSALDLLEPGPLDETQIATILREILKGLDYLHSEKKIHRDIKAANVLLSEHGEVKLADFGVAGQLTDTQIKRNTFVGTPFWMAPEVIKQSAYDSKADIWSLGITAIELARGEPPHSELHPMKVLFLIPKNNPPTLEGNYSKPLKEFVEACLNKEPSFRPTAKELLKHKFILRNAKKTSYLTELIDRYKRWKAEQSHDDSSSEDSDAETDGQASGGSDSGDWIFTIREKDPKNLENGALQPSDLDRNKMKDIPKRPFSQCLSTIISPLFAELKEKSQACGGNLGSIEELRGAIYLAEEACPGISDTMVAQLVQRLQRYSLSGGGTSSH

[16] = molecular target: SRSF protein kinase 1 (Homo sapiens) (UniProt Q96SB4); experiment: Inhibition of human SRPK1 (2 to 654 residues) assessed as residual activity at 500 nM in presence of 33P-ATP by filter binding assay relative to control
[17] = molecular target: serine/threonine-protein kinase D1 (Homo sapiens) (UniProt Q15139); experiment: Inhibition of human PKD1 (2 to 912 residues) at 500 nM in presence of 33P-ATP by filter binding assay relative to control
[18] = molecular target: Tyrosine-protein kinase Yes (Homo sapiens) (UniProt P07947); experiment: Inhibition of human YES1 (1 to 543 residues) at 500 nM by filter binding assay relative to control
[19] = molecular target: Death-associated protein kinase 1 (Homo sapiens) (UniProt P53355); experiment: Inhibition of human DAPK1 (1 to 363 residues) assessed as residual activity at 500 nM in presence of 33P-ATP by filter binding assay relative to control
Death-associated protein kinase 1 (Homo sapiens), sequence (P53355 whole entry, looked up, the tested form may be a part): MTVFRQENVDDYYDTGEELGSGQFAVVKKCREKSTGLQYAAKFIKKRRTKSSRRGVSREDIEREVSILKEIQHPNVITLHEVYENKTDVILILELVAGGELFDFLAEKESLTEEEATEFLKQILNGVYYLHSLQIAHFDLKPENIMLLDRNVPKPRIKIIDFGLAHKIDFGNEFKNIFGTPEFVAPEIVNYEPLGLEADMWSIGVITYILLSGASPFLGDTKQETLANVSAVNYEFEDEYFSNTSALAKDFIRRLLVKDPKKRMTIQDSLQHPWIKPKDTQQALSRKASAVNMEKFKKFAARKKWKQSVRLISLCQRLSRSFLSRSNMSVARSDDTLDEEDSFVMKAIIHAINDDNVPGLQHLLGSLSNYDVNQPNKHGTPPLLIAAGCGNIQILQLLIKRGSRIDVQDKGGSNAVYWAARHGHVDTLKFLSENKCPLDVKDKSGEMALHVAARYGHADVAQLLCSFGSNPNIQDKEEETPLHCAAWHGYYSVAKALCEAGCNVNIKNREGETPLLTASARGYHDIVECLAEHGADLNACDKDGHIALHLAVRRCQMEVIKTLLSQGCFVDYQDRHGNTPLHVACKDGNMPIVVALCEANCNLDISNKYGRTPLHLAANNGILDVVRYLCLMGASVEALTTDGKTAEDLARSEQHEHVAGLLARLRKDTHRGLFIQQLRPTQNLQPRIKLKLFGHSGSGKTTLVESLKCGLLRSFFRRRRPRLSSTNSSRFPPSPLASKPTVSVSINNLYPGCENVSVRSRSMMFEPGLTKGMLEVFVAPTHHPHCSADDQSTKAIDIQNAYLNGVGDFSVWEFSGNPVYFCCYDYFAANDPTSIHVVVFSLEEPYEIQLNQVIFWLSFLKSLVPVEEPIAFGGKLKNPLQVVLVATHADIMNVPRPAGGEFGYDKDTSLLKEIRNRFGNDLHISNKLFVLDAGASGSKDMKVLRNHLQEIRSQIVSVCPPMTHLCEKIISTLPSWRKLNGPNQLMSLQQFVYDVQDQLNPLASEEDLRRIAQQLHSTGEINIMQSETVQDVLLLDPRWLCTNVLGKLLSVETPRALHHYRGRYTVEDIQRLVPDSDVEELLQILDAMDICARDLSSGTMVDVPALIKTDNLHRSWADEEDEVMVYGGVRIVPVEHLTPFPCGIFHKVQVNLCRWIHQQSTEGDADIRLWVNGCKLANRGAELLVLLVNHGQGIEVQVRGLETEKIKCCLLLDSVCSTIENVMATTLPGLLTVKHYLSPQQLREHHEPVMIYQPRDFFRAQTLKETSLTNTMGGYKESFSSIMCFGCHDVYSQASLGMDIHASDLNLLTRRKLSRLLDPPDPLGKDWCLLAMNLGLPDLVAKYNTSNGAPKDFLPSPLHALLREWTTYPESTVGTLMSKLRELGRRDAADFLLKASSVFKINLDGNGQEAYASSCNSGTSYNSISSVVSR

[20] = molecular target: Angiopoietin-1 receptor (Homo sapiens) (UniProt Q02763); experiment: Inhibition of human TIE2 (771 to 1124 residues) assessed as residual activity at 500 nM in presence of 33P-ATP by filter binding assay relative to control
[21] = molecular target: Mitogen-activated protein kinase kinase kinase 5 (Homo sapiens) (UniProt Q99683); experiment: Inhibition of human ASK1 (670 to 950 residues) assessed as residual activity at 500 nM in presence of 33P-ATP by filter binding assay relative to control
[22] = molecular target: Serine/threonine-protein kinase Nek2 (Homo sapiens) (UniProt P51955); experiment: Inhibition of human NEK2A (1 to 445 residues) assessed as residual activity at 500 nM in presence of 33P-ATP by filter binding assay relative to control
[23] = molecular target: MAP/microtubule affinity-regulating kinase 4 (Homo sapiens) (UniProt Q96L34); experiment: Inhibition of human MARK4 (2 to 752 residues) assessed as residual activity at 500 nM in presence of 33P-ATP by filter binding assay relative to control
[24] = molecular target: CDK2/Cyclin A2 (Homo sapiens) (UniProt P24941+P20248); experiment: Inhibition of human CDK2 (2 to 298 residues)/cyclinA2 (171 to 432 residues) assessed as residual activity at 500 nM in presence of 33P-ATP by filter binding assay relative to control; format: protein-complex assay
[25] = molecular target: Serine/threonine-protein kinase tousled-like 1 (Homo sapiens) (UniProt Q9UKI8); experiment: Inhibition of human TLK1 (1 to 766 residues) assessed as residual activity at 500 nM in presence of 33P-ATP by filter binding assay relative to control
[26] = molecular target: NUAK family SNF1-like kinase 1 (Homo sapiens) (UniProt O60285); experiment: Inhibition of human NUAK1 (2 to 660 residues) assessed as residual activity at 500 nM in presence of 33P-ATP by filter binding assay relative to control

Structure (SMILES): Cc1cccc(-c2nc(N)sc2-c2ccc3ncccc3n2)c1
- Activity [1]: 99%
- Activity [2]: 95%
- Activity [3]: 106%
- Activity [4]: 113%
- inhibition [5]: 91%
- inhibition [6]: 59%
- Activity [7]: 60%
- Activity [8]: 81%
- Activity [9]: 86%
- Activity [10]: 85%
- inhibition [11]: 86%
- Ratio [12]: 12800
- Activity [13]: 115%
- Activity [14]: 134%
- Activity [15]: 91%
- Activity [16]: 112%
- inhibition [17]: 91%
- inhibition [18]: 47%
- Activity [19]: 96%
- Activity [20]: 106%
- Activity [21]: 106%
- Activity [22]: 102%
- Activity [23]: 116%
- Activity [24]: 104%
- Activity [25]: 121%
- Activity [26]: 86%
